# Tested on: THP-1 viability, CellTiter-Glo luminescence, 72 h
# Assay: PubChem AID 2252
row,Compound,EC50
1,CC(C)(C)c1ccc(OCCNC(=S)Nc2ccccc2)cc1,16 µM
2,S=C(NCc1ccc(Cl)cc1)Nc1ccncc1,40.1 µM
3,Cc1[nH]c2ccccc2c1/C=N/Nc1nc2ccccc2[nH]1,1.52 µM
4,O=C(N/N=C/c1ccccc1O)C1SCCCS1,26.1 µM
5,Cc1ccc(C)c(NC(=O)c2ccccc2O)c1,35.1 µM
6,NC1=NC[C@H](Cc2ccc(O)cc2)N1CCc1cccc2ccccc12,32.7 µM
7,[O-][n+]1cccc2c(Br)cc(Br)c(O)c21,24.4 µM
8,CC(=O)NC(=S)NNC(=O)c1ccc(Br)cc1,27.6 µM
9,Cc1ccc(C(C[N+](=O)[O-])c2c(N)n(C)c(=O)n(C)c2=O)cc1 (stereo not drawn),26.3 µM
10,Cn1cc(C(=O)N/N=C/C(Br)=C/c2ccccc2)ccc1=O,14.5 µM
11,CCCCNCCCOc1cccc(Cl)c1Cl,28.2 µM
12,COCCCNC(=S)NNC(=O)c1ccccn1,38 µM
13,O=C(N/N=C\C=C\c1ccc([N+](=O)[O-])o1)c1cccs1,34.8 µM

# From PubChem BioAssay AID2252 (Southern Research Specialized Biocontainment Screening …, 2010)
